Data from publication PMC6450621, “Changes of drug pharmacokinetics mediated by downregulation of kidney organic cation transporters Mate1 and Oct2 in a rat model of hyperuricemia” (PLoS ONE, 2019).
Values joined by “and” are separate entries in the source; they are usually repeats but may differ in a detail not shown here. Equal entries are not always repeated.

Assays:
[1] = Inulin clearance in control and hyperuricemic rats; assay type: in vivo, rat; conditions: Day 10, inulin 100 mg/kg iv
Protocol: Urine was collected at the designated times. […] All samples were stored at -80°C until measurement.
Inulin was measured by the anthrone method. After adding 500 mL concentrated sulfuric acid to 200 mL distilled water and cooling the solution to room temperature, 1.4 g anthrone (Sigma Aldrich) was added to it at 56°C to prepare the anthrone reagent. An aliquot of the reagent (400 μL) was added to 10 μL of plasma or urine suitably diluted with saline. The tube containing the sample was immersed in ice-cold water, shaken well and then allowed to react for 10 min at 56°C. The vial was immersed in ice-cold water to stop the reaction. The absorbance at 636 nm was measured with a spectrophotometer (UVmini1240, Shimadzu).

[2] = Pharmacokinetic study after intravenous administration in control and hyperuricemic rats (plasma, urine, kidney); conditions: for AUC0-4 / Kp, kidney / Kp at 4 h: creatinine; for Kp at 4 h / AUC(0-t) / concentration at 0.5 min / concentration at 30 min / concentration at 60 min: rat; for Kp at 4 h: kidney; for AUC(0-t) / concentration at 0.5 min / concentration at 30 min / concentration at 60 min: plasma; for concentration at 0.5 min / concentration at 30 min / concentration at 60 min: Plasma concentration;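 on all read-outs here: Pentobarbital-anesthetized rats with cannulated bladder, jugular plasma, timed urine and saline kidney homogenate assayed by HPLC or LC-MS/MS, Kp as kidney over plasma level at 4 h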
Protocol: Rats were anesthetized with pentobarbital, and the bladder was cannulated with polyethylene tubing (inside diameter 0.5 mm, outside diameter 0.8 mm). […] Blood was drawn through the jugular vein, and plasma was obtained by centrifugation at 3,000 rpm for 10 min at 4°C. Urine was collected at the designated times. […] All samples were stored at -80°C until measurement.
If necessary, plasma and urine were diluted 10- to 100-fold and 10- to 10000-fold with saline, respectively, for high-performance liquid chromatography (HPLC) or liquid chromatography/tandem mass spectrometry (LC-MS/MS) measurement. […] Prepared samples were mixed for 1 min and centrifuged at 15,000 rpm for 5 min at 4°C. The resultant supernatant was used for LC-MS/MS analysis. The LC-MS/MS system consisted of a triple-quadrupole mass spectrometer (API 3200^TM, SCIEX, Foster City, CA) coupled with an ultrafast liquid chromatography system (LC-20AD, Shimadzu, Kyoto, Japan). […] For metformin, the mobile phase consisted of 0.1% formic acid and acetonitrile (30 : 70), and the flow rate was 0.4 mL/min.
The plasma concentration-time data were analyzed by non-compartmental analysis. The area under the plasma concentration-time curve (AUC0-4) was obtained by application of the trapezoidal rule from time 0 to 4 h. AUC from 0 to infinity (AUCinf) was estimated by extrapolation to infinity.

human MATE1 = biological target: T1, human MATE1 (Homo sapiens, UniProt Q96FL8); assay: Uptake of [3H]MPP+ by MATE1-expressing HEK293 cells; assay type: cell-based; conditions: for MATE1-mediated uptake of MPP+, % of Control: after subtraction of uptake by mock cells
T1 construct: expressed in transfected cells; host or cells: HEK293 (HEK293/hMATE1; gift from Dr. Inoue, Tokyo University of Pharmacy and Life Science)
T1 sequence (Q96FL8 1-570): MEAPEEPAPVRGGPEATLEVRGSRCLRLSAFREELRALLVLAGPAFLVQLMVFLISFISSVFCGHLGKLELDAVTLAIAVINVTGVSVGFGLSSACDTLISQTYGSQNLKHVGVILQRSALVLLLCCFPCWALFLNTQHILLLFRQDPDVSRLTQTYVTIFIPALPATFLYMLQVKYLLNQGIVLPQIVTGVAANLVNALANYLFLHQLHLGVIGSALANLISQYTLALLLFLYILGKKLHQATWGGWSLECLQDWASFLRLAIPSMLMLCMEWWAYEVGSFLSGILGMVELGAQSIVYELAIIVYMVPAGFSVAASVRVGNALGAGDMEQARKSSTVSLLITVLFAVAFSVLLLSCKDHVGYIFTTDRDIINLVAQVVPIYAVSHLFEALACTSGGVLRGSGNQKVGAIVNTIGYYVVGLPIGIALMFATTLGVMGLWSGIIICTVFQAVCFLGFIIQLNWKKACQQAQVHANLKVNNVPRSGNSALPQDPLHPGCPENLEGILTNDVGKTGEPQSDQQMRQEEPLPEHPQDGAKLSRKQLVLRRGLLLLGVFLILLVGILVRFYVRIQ
Protocol: HEK293 cells transfected with human MATE1 (HEK293/hMATE1) and vector alone (mock) were gifts from Dr. Inoue (Tokyo University of Pharmacy and Life Science). […] HEK293/mock and HEK293/hMATE1 cells were plated at a density of 3.0 × 10^5 cells/well on 24-well plates and cultured for two days before an uptake assay. […] Radioactivity was measured with a liquid scintillation counter (Hitachi Aloka Medical, Tokyo, Japan). Part of the lysate was used for the determination of total protein amount with Bio-Rad protein assay dye reagent. Uptake of MPP^+ was expressed as a cell-to-medium ratio (μL/mg protein) obtained by dividing the uptake amount by the concentration of substrate in the TM. Percentages of control were calculated as the ratio of MATE1-mediated uptake of MPP^+ that obtained after subtraction of the uptake of MPP^+ by mock cells in compound treated groups to that in control group.

[3] = Plasma concentration of oxonic acid and adenine in hyperuricemic rats; assay type: in vivo, rat; conditions: hyperuricemic rats given oral oxonic acid […] and adenine 0.1 g/kg; detection limit 100 μM for oxonic acid
Mock cells = assay: Uptake of MPP+ by mock cells (background for MATE1-expressing cells); assay type: cell-based; conditions: 100 µM; replicates and mean
Protocol: Dunnett's test was used for uptake study to compare the control group to groups treated with drugs.
Percentages of control were calculated as the ratio of MATE1-mediated uptake of MPP^+ that obtained after subtraction of the uptake of MPP^+ by mock cells in compound treated groups to that in control group.

[4] = control rats, individual rats and mean
[5] = hyperuricemic rats, individual rats and mean

## inulin
[1]; control rats, individual rat
  Inulin Clearance: 5.90 mL/min/kg and 7.51 mL/min/kg and 6.75 mL/min/kg
[1]; control rats, mean
  Inulin Clearance: 6.72 mL/min/kg
[1]; hyperuricemic rats, individual rat
  Inulin Clearance: 7.92 mL/min/kg and 4.99 mL/min/kg and 6.15 mL/min/kg and 4.14 mL/min/kg and 3.58 mL/min/kg
[1]; hyperuricemic rats, mean
  Inulin Clearance: 5.36 mL/min/kg

## CN1CC(=O)NC1=N [Creatinine, creatinine]
[2]; control rats, 0.5 min after iv metformin 30 mg/kg or cephalexin 10 mg/kg (creatinine endogenous), individual rat
  Plasma concentration: 19.0 µM and 21.0 µM
[2]; control rats, 10 min, individual rats and mean
  Urinary excretion (cumulative): 0.04 mg and 0.06 mg and 0.09 mg and 0.07 mg
[2]; control rats, 20 min, individual rats and mean
  Urinary excretion (cumulative): 0.10 mg and 0.12 mg and 0.16 mg and 0.13 mg
[2]; control rats, 30 min, individual rats and mean
  Urinary excretion (cumulative): 0.13 mg and 0.19 mg and 0.22 mg and 0.18 mg
[2]; control rats, 30 min after iv metformin 30 mg/kg or cephalexin 10 mg/kg (creatinine endogenous), individual rat
  Plasma concentration: 20.1 µM and 20.4 µM
[2]; control rats, 60 min, individual rats and mean
  Urinary excretion (cumulative): 0.18 mg and 0.30 mg and 0.32 mg and 0.27 mg
[2]; control rats, 60 min after iv metformin 30 mg/kg or cephalexin 10 mg/kg (creatinine endogenous), individual rat
  Plasma concentration: 18.9 µM and 19.0 µM
[2]; control rats, 120 min, individual rats and mean
  Urinary excretion (cumulative): 0.46 mg and 0.61 mg and 0.52 mg and 0.53 mg
[2]; control rats, 240 min, individual rats and mean
  Urinary excretion (cumulative): 0.98 mg and 1.44 mg and 1.32 mg and 1.25 mg
[2]; [4]
  AUC0-4: 5400 µM·min and 5463 µM·min
  Kp, kidney: 10.4 and 11.3
[2]; [5]
  AUC0-4: 10502 µM·min and 8634 µM·min
  Kp, kidney: 11.7 and 17.3
[2]; hyperuricemic rats, 0.5 min after iv metformin 30 mg/kg or cephalexin 10 mg/kg (creatinine endogenous), individual rat
  Plasma concentration: 36.4 µM and 30.6 µM
[2]; hyperuricemic rats, 10 min, individual rats and mean
  Urinary excretion (cumulative): 0.12 mg (3×) and 0.11 mg
[2]; hyperuricemic rats, 20 min, individual rats and mean
  Urinary excretion (cumulative): 0.19 mg (3×) and 0.20 mg
[2]; hyperuricemic rats, 30 min, individual rats and mean
  Urinary excretion (cumulative): 0.26 mg (2×) and 0.28 mg and 0.25 mg
[2]; hyperuricemic rats, 30 min after iv metformin 30 mg/kg or cephalexin 10 mg/kg (creatinine endogenous), individual rat
  Plasma concentration: 34.4 µM and 30.6 µM
[2]; hyperuricemic rats, 60 min, individual rats and mean
  Urinary excretion (cumulative): 0.42 mg and 0.39 mg and 0.44 mg and 0.43 mg
[2]; hyperuricemic rats, 60 min after iv metformin 30 mg/kg or cephalexin 10 mg/kg (creatinine endogenous), individual rat
  Plasma concentration: 34.5 µM and 36.2 µM
[2]; hyperuricemic rats, 120 min, individual rats and mean
  Urinary excretion (cumulative): 0.69 mg and 0.58 mg and 0.73 mg and 0.76 mg
[2]; hyperuricemic rats, 240 min, individual rats and mean
  Urinary excretion (cumulative): 1.22 mg and 0.95 mg and 1.24 mg and 1.48 mg
[2]; intravenous, control rats, individual rats and mean
  Kp at 4 h: 8.8
[2]; intravenous, hyperuricemic rats, individual rats and mean
  Kp at 4 h: 12
[2]; intravenous, AUC0-4, creatinine, control rats, individual rats and mean
  AUC(0-t): 87.6 µM·h
[2]; intravenous, AUC0-4, creatinine, hyperuricemic rats, individual rats and mean
  AUC(0-t): 171 µM·h
[2]; intravenous, control rats, 0.5 min after iv metformin 30 mg/kg or cephalexin 10 mg/kg (creatinine endogenous), individual rat
  concentration at 0.5 min: 17.7 µM
[2]; intravenous, control rats, 0.5 min after iv metformin 30 mg/kg or cephalexin 10 mg/kg (creatinine endogenous), mean n=3
  concentration at 0.5 min: 19.2 µM
[2]; intravenous, control rats, 30 min after iv metformin 30 mg/kg or cephalexin 10 mg/kg (creatinine endogenous), individual rat
  concentration at 30 min: 19.5 µM
[2]; intravenous, control rats, 30 min after iv metformin 30 mg/kg or cephalexin 10 mg/kg (creatinine endogenous), mean n=3
  concentration at 30 min: 20 µM
[2]; intravenous, control rats, 60 min after iv metformin 30 mg/kg or cephalexin 10 mg/kg (creatinine endogenous), individual rat
  concentration at 60 min: 22.9 µM
[2]; intravenous, control rats, 60 min after iv metformin 30 mg/kg or cephalexin 10 mg/kg (creatinine endogenous), mean n=3
  concentration at 60 min: 20.3 µM
[2]; intravenous, hyperuricemic rats, 0.5 min after iv metformin 30 mg/kg or cephalexin 10 mg/kg (creatinine endogenous), individual rat
  concentration at 0.5 min: 24.6 µM
[2]; intravenous, hyperuricemic rats, 0.5 min after iv metformin 30 mg/kg or cephalexin 10 mg/kg (creatinine endogenous), mean n=3
  concentration at 0.5 min: 30.5 µM
[2]; intravenous, hyperuricemic rats, 30 min after iv metformin 30 mg/kg or cephalexin 10 mg/kg (creatinine endogenous), individual rat
  concentration at 30 min: 25.9 µM
[2]; intravenous, hyperuricemic rats, 30 min after iv metformin 30 mg/kg or cephalexin 10 mg/kg (creatinine endogenous), mean n=3
  concentration at 30 min: 30.3 µM
[2]; intravenous, hyperuricemic rats, 60 min after iv metformin 30 mg/kg or cephalexin 10 mg/kg (creatinine endogenous), individual rat
  concentration at 60 min: 26.5 µM
[2]; intravenous, hyperuricemic rats, 60 min after iv metformin 30 mg/kg or cephalexin 10 mg/kg (creatinine endogenous), mean n=3
  concentration at 60 min: 32.4 µM
[2]; iv, AUC0-4, control rats, iv metformin 30 mg/kg or cephalexin 10 mg/kg, creatinine endogenous, mean n=3
  AUC(0-t): 89.5 µM·h
[2]; iv, AUC0-4, hyperuricemic rats, iv metformin 30 mg/kg or cephalexin 10 mg/kg, creatinine endogenous, mean n=3
  AUC(0-t): 163 µM·h

## Nc1ncnc2nc[nH]c12 [adenine]
Human MATE1; Adenine 50 µM, replicates and mean
  MATE1-mediated uptake of MPP+, % of Control: 68.3 % of Control and 107.0 % of Control
Human MATE1; Adenine 500 µM, replicates and mean
  MATE1-mediated uptake of MPP+, % of Control: 89.5 % of Control and 71.0 % of Control and 100.5 % of Control
Human MATE1; Adenine 500 µM, replicates and mean, mean
  MATE1-mediated uptake of MPP+, % of Control: 87.0 % of Control
[3]
  Plasma concentration: lower than 100 μM

## O=c1[nH]c(=O)c2[nH]c(=O)[nH]c2[nH]1 [uric acid]
Human MATE1; 50 μM test compound, HEK293/hMATE1 minus mock, 0.25 nM [3H]MPP+, 0.5 min, 37°C
  MATE1-mediated uptake of [3H]MPP+, percentage of control: 102.0%
Human MATE1; 500 μM test compound, HEK293/hMATE1 minus mock, 0.25 nM [3H]MPP+, 0.5 min, 37°C
  MATE1-mediated uptake of [3H]MPP+, percentage of control: 100.7%
Human MATE1; 50 and 500 μM of each
  Inhibitory effect on MATE1-mediated MPP+ uptake: No inhibitory effects
Human MATE1; Uric acid 50 µM, replicates and mean
  MATE1-mediated uptake of MPP+, % of Control: 96.8 % of Control and 81.0 % of Control and 128.4 % of Control
Human MATE1; Uric acid 50 µM, replicates and mean, mean
  MATE1-mediated uptake of MPP+, % of Control: 102.0 % of Control
Human MATE1; Uric acid 500 µM, replicates and mean
  MATE1-mediated uptake of MPP+, % of Control: 87.8 % of Control and 117.9 % of Control and 96.4 % of Control
Human MATE1; Uric acid 500 µM, replicates and mean, mean
  MATE1-mediated uptake of MPP+, % of Control: 100.7 % of Control

## CN/C(=N/CCSCc1nc[nH]c1C)NC#N [cimetidine]
Human MATE1; 100 µM, replicates and mean, 100 µM
  MATE1-mediated uptake of MPP+, % of Control: 5.0 % of Control and 14.6 % of Control
Human MATE1; 100 µM, replicates and mean
  C/M ratio of MPP+ uptake, MATE1-expressing cells: 36.0 µL/mg protein and 18.8 µL/mg protein
Human MATE1; positive control Mate1 inhibitor, concentration not given, HEK293/hMATE1
  MATE1-mediated uptake of [3H]MPP+, percentage of control: 8.2%
Mock cells
  C/M ratio of MPP+ uptake, Mock cells: 9.40 µL/mg protein and 10.25 µL/mg protein and 9.69 µL/mg protein
